Laboratory results reported in patent publication US6956046B2, “4-hydroxypiperidine derivatives having analgesic activity” (priority 2001, dated 2005).

Columns and labels:
[1] = system: formalin-induced nociceptive response in rats; test: Inhibitory effect on the formalin-induced nociceptive response in rats; type: in vivo, rat; conditions: oral, 30 minutes before subcutaneous formalin; probit method
Procedure: [Inhibitory Effect on the Formalin-induced Nociceptive Response in Rats]
The experiment was undertaken by the method disclosed by Doak et al., Eur. J. Pharmacol. 281:311, 1995. Specifically, 50 μL of 0.5% formalin solution was subcutaneously injected into the left foot pad of the rat, and then each behavior of the rat consisting of the licking or biting of the pad immediately following the injection was checked with a stopwatch for its duration, and its cumulative duration was recorded at five minute intervals. The nociceptive response observed in 10 minutes after the injection was termed a first-phase response while the response observed between 10 minutes and 45 minutes after the injection was termed a second-phase response. The test compound was orally applied to the rat 30 minutes before the subcutaneous injection of formalin. Then, the inhibitory effect of the test compound on the nociceptive response induced by the formalin injection was calculated according to the following formula and 30% inhibition dose (ED30 value) was determined by the probit method. To mention, for illustration, ED30 value of carbamazepine was 27 mg/kg. Percent inhibition (%)=[(PRcontrol−PRtest)/PRcontrol]×100 wherein PRtest is the response time (sec) of the test group which received formalin and the test compound, while PRcontol is the response time of the control group which. received formalin and vehicle.

[2] = system: rat model made by loosely constricting the sciatic nerve; test: Efficacy in the rat model made by loosely constricting the sciatic nerve (von Frey response threshold); type: in vivo; conditions: for Mean threshold (g) Injured foot (left) / Mean threshold (g) Normal foot (right): one hour after dosing
Procedure: [Efficacy in the Rat Model Made by Loosely Constricting the Sciatic Nerve]
Preparation of the rat pain model based on the constriction of the sciatic nerve was performed by the method introduced by Bennett et al. (“Pain,” 33:87, 1988). Specifically, the rat was anesthetized with i.p. injection of pentobarbital sodium at 40 mg/kg; the overlying skin was cut open; and the left biceps femoris muscle was bluntly separated. The sciatic nerve was isolated from surrounding tissues; it was gently constricted at four sites about 1 mm apart from each other by the use of surgical gut sutures (4-0 or 3-0 chromic gut); the operated part was closed; and the rat was returned to its cage for further feeding. For the rat belonging to the sham-surgery group, the same operation was performed except that the sciatic nerve was left untouched. Two weeks after the surgery, the response threshold to a mechanical stimulus consisting of touch with von Frey filaments was determined. The test proceeded as follows: the test compound was orally applied to the rat having the sciatic nerve constricted; one hour later, von Frey hairs were applied against the foot pad (spots ranging from heel to the mid-point of foot) one after another in an ascending order of their stiffness; if the rat raises its foot when a certain von Frey hair was applied, the stimulus intensity of that hair was taken as the response threshold (maximum stimulus intensity being 28.84 g).

[3] = Metabolic stability in human liver microsomes and hepatocytes; type: in vitro ADME
[4] = system: human-drug metabolizing enzymes; test: Inhibitory effect on human-drug metabolizing enzymes; type: in vitro ADME
[5] = Metabolic stability in dog liver microsomes and hepatocytes; type: in vitro ADME
[6] = Pharmacokinetics: plasma concentration after a single oral administration; type: in vivo; conditions: male rhesus monkey
Description: The compound of Example 12 or Example 29 were studied about time-course profile of plasma concentration after a single oral administration to 3 or 4 year-old male rhesus monkey. […] Therefore, it can be considered to cause unlikely the drug-drug interaction by the compounds. […] Therefore, it can be considered that the compounds are unlikely metabolized by first pass effect.

[7] = Metabolic stability in rat liver microsomes and hepatocytes; type: in vitro ADME
[8] = system: Wistar Hannover female rats; test: Toxicological study, oral, rats; type: in vivo, rat
Procedure: The compounds of Example 8 or Example 12 were orally given to 6 week-old Wistar Hannover female rats at 40 mg/kg/day.
The compound of Example 29 was orally given to 6 week-old Wistar Hannover female rats at 400 mg/Kg/day once daily for 14 days, respectively.

rhesus male monkey = test: Holter ECG test; type: in vivo; conditions: oral 80 mg/Kg, 4 year-old rhesus male monkey
Procedure: In Holter ECG test, the compound of Example 12 or Example 29 were orally given to 4 year-old rhesus male monkey at 80 mg/Kg. There was no effect in electrocardiogram.

[9] = Metabolic stability in monkey liver microsomes and hepatocytes; type: in vitro ADME
rhesus male monkeys = test: Toxicological study, oral, 14 days, monkeys; type: in vivo, rhesus monkey; conditions: for survival: until 24 hours after final administration
Procedure: The compound Example 12 or Example 29 were orally given to 3 year-old rhesus male monkeys at 20 mg/Kg/day and 40 mg/Kg/day, respectively, once daily for 14 days.

[10] = oral 20 mg/Kg/day once daily for 14 days
[11] = oral 400 mg/Kg/day once daily for 14 days
[12] = oral 40 mg/Kg/day once daily for 14 days

| Structure (SMILES) | ED30 value (30% inhibition dose) [1] [mg/kg] | metabolic stability [3] | inhibitory effect on human-drug metabolizing enzymes [4] | metabolic stability [5] | bioavailability [6] | maximum plasma concentration (Cmax) and area under the plasma concentration-time curve (AUC) versus dose [6] | metabolic stability [7] | effect in electrocardiogram (rhesus male monkey) | Mean threshold (g) Injured foot (left) ([2]; dose 1 mg/kg oral) [g] | Mean threshold (g) Normal foot (right) ([2]; dose 1 mg/kg oral) [g] | Mean threshold (g) Injured foot (left) ([2]; dose 3 mg/kg oral) [g] | Mean threshold (g) Normal foot (right) ([2]; dose 3 mg/kg oral) [g] | Mean threshold (g) Injured foot (left) ([2]; dose 10 mg/kg oral) [g] | Mean threshold (g) Normal foot (right) ([2]; dose 10 mg/kg oral) [g] | metabolic stability [9] | also measured |
| --- | --- | --- | --- | --- | --- | --- | --- | --- | --- | --- | --- | --- | --- | --- | --- | --- |
| NC(=O)N1c2ccccc2C=Cc2ccccc21 [Carbamazepine, carbamazepine, reference compound] | 27 | – | – | – | – | – | – | – | – | – | – | – | – | – | – | Mean threshold (g) Injured foot (left) ([2]; dose 30 mg/kg oral): 9.01 g; Mean threshold (g) Normal foot (right) ([2]; dose 30 mg/kg oral): 20.53 g; threshold of the injured paw to a mechanical stimulus (in words) ([2]; injured side): significantly raised; response threshold of the normal paw (in words) ([2]; normal side): significantly raised |
| Cl.N#Cc1ccc(CCN2CCC(O)(COc3ccc(C(=O)O)cc3)CC2)cc1 [Example 12, 4-{1-[2-(4-cyanophenyl)ethyl]-4-hydroxypiperidin-4-ylmethoxy}benzoic acid hydrochloride] | 2.0 | metabolically stable | no serious inhibitory effect | metabolically stable | very good bioavailability | increased almostly in proportion to the doses | metabolically stable | no effect | 7.96 | 14.29 | 8.92 | 14.71 | 10.96 | 14.29 | metabolically stable | general appearance ([8]; oral 40 mg/kg/day, 6 week-old female rats): no abnormalities; survival ([8]; oral 40 mg/kg/day, 6 week-old female rats, examination period): all the rats survived; general appearances, body weight gains and food consumptions (rhesus male monkeys; [10]): no abnormalities; hematology, biochemistry, organ weight, and histopathology (rhesus male monkeys; [10]): No abnormal findings; survival (rhesus male monkeys; [10]): All the monkeys survived |
| CN(CC1(O)CCN(CCc2ccc(C#N)cc2)CC1)c1ccc(C(=O)O)cc1.Cl [Example 29, 4-({1-[2-(4-cyanophenyl)ethyl]-4-hydroxypiperidin-4-ylmethyl}methylamino)benzoic acid monohydrochloride] | 1.2 | metabolically stable | no serious inhibitory effect | metabolically stable | very good bioavailability | increased almostly in proportion to the doses | metabolically stable | no effect | 5.22 | 14.12 | 7.09 | 14.49 | 8.61 | 15.49 | metabolically stable | general appearances, body weight gains and food consumptions [8, 11]: no abnormalities; hematology, biochemistry, organ weight, and histopathology [8, 11]: No abnormal findings; survival ([8]; oral 400 mg/Kg/day once daily for 14 days, until 24 hours after final administration): All the rats survived; general appearances, body weight gains and food consumptions (rhesus male monkeys; [12]): no abnormalities; hematology, biochemistry, organ weight, and histopathology (rhesus male monkeys; [12]): No abnormal findings; survival (rhesus male monkeys; [12]): All the monkeys survived |
| Cl.N#Cc1ccc(CCN2CCC(O)(COc3ccc([N+](=O)[O-])cc3)CC2)cc1 [Example 11, 1-[2-(4-cyanophenyl)ethyl]-4-(4-nitrophenoxymethyl)piperidin-4-ol hydrochloride] | 0.047 | – | – | – | – | – | – | – | – | – | – | – | – | – | – | melting point: 219.6 to 221.3 °C |
